US20190000829A1, “THERAPEUTIC AGENT FOR BILIARY TRACT CANCER” (Eisai R&D Management Co., Ltd., priority 2015, published 2019)

What was measured:
[1] = system: human extrahepatic cholangiocarcinoma cell line (TFK-1 cell line); experiment: Tumor growth-inhibitory effect in model subcutaneously transplanted with human extrahepatic cholangiocarcinoma cell line (TFK-1); assay type: in vivo; details: TFK-1 subcutaneous xenograft, nude mice; mesylate of compound A 1, 3, 10, 30, 100 mg/kg orally once a day for 14 days
Protocol: An antitumor effect produced by administration of compound A was evaluated with six nude mice in each group (CAnN.Cg-Foxn1^nu/CrlCrlj, female, Charles River Laboratories Japan, Inc.). The human-derived extrahepatic cholangiocarcinoma TFK-1 cell lines (Riken BioResource Center) were suspended in RPMI1640 medium (Wako Pure Chemical Industries, Ltd., supplemented with 10% FBS) at a concentration of 2×10^8 cells/mL and were mixed well. The cell suspension was further mixed with an equal amount of Matrigel basement membrane matrix (Corning Incorporated) to prepare a cell suspension at 1×10^8 cells/mL, and aliquots of 0.1 mL were subcutaneously transplanted into the right flank of each mouse. Seven days after transplantation, the longest diameter and the short axis of the tumors were measured by an electronic digital caliper (ABS Digimatic Caliper, Mitutoyo Corporation). The mice were divided into groups so that the average of tumor volumes of each group became approximately equal. In this regard, the tumor volume was calculated according to the following formula.
(§1) Tumor volume (mm^3)=longest diameter (mm)×short axis (mm)×short axis (mm)/2 […]
(§2) The tumor volume was measured on the day when the administration was started (Day 1), Day 4, Day 8, and Day 11, and the day following the last day of administration (Day 15). […]

[2] = system: unresectable biliary tract cancer; experiment: Multicenter, unblinded, phase II clinical trial in patients with unresectable biliary tract cancer after combination chemotherapy involving gemcitabine (interim analysis); assay type: in vivo, human
From the text: This clinical trial was a multicenter, single-group, unblinded clinical trial for patients with a prior treatment history who had received one regimen using two-drug combination chemotherapy involving gemcitabine (two-drug combination chemotherapy using gemcitabine and cisplatin, or gemcitabine and another platinum-based drug or a fluorinated pyrimidine drug) for their unresectable biliary tract cancers.
This clinical trial was composed of three periods, which were a pretreatment period, an administration period, and a follow-up period. During the pretreatment period, screening was performed within 21 days. The administration period was composed of administration of mesylate of compound A as an investigational drug in each cycle and tumor assessment performed every 6 to 8 weeks. The follow-up period was started immediately after the day when administration was discontinued and was continued while the subject was alive until withdrawal of consent by the subject or completion of the clinical trial.
The investigational drug, mesylate of compound A, was administered orally once a day in a cycle of 28 days at a dose of 24 mg in terms of compound A in free form, and administration was continued until disease progression, an unacceptable adverse event, withdrawal of consent by the subject, or the like occurred.
The primary objective of the clinical trial was to determine an objective response rate (ORR) of the investigational drug for patients with an unresectable biliary tract cancer after combination chemotherapy involving gemcitabine.
The secondary objective of the clinical trial was to determine a progression-free survival (PFS), an overall survival (OS), a disease control rate (DCR), a clinical benefit rate (CBR), adverse events (AEs), and the number of subjects who developed serious adverse events (SAEs), and a blood concentration. In this context, ORR is defined as a rate of subjects with their best overall response (BOR) being complete response (CR) or partial response (PR). […]

[3] = system: human cholangiocarcinoma cell line (OZ cell line); experiment: Tumor growth-inhibitory effect in model subcutaneously transplanted with human cholangiocarcinoma cell line (OZ); assay type: in vivo; details: OZ subcutaneous xenograft, nude mice; mesylate of compound A 1, 3, 10, 30, 100 mg/kg orally once a day for 14 days
Protocol: An antitumor effect produced by administration of compound A was evaluated with five nude mice in each group (CAnN.Cg-Foxn1^nu/CrlCrlj, female, Charles River Laboratories Japan, Inc.). The human-derived cholangiocarcinoma OZ cell lines (JCRB Cell Bank) were suspended in Williams'E (Sigma-Aldrich Corporation, supplemented with 2 mmol/L L-glutamine and 10% FBS) at a concentration of 2×10^8 cells/mL and were mixed well. The cell suspension was further mixed with an equal amount of Matrigel basement membrane matrix (Corning Incorporated) to prepare a cell suspension at 1×10^8 cells/mL, and aliquots of 0.1 mL were subcutaneously transplanted into the right flank of each mouse. Thirteen days after transplantation, the longest diameter and the short axis of the tumors were measured by an electronic digital caliper (ABS Digimatic Caliper, Mitutoyo Corporation). The mice were divided into groups so that the average of tumor volumes of each group became approximately equal. In this regard, the tumor volume was calculated according to the following formula.
as §1
The tumor volume was measured on the day when the administration was started (Day 1), Day 5, Day 8, and Day 12, and the clay following the last day of administration (Day 15). […]

[4] = system: human carcinoma of the ampulla of Vater cell line (SNU-869 cell line); experiment: Tumor growth-inhibitory effect in model subcutaneously transplanted with human carcinoma of the ampulla of Vater cell line (SNU-869); assay type: in vivo; details: SNU-869 subcutaneous xenograft, nude mice; mesylate of compound A 1, 3, 10, 30, 100 mg/kg orally once a day for 14 days
Protocol: An antitumor effect produced by administration of compound A was evaluated with six nude mice in each group (CAnN.Cg-Foxn1^nu/CrlCrlj, female, Charles River Laboratories Japan, Inc.). The human-derived human carcinoma of the ampulla of Vater SNU-869 cell lines (Creative Bioarray) were suspended in RPMI1640 medium (Wako Pure Chemical Industries, Ltd., supplemented with 25 mM HEPES and 10% FBS) at a concentration of 2×10^8 cells/mL and were mixed well. The cell suspension was further mixed with an equal amount of Matrigel basement membrane matrix (Corning Incorporated) to prepare a cell suspension at 1×10^8 cells/mL, and aliquots of 0.1 mL were subcutaneously transplanted into the right flank of each mouse. Seven days after transplantation, the longest diameter and the short axis of the tumors were measured by an electronic digital caliper (ABS Digimatic Caliper, Mitutoyo Corporation). The mice were divided into groups so that the average of tumor volumes of each group became approximately equal. In this regard, the tumor volume was calculated according to the following formula.
as §1, §2

`COc1cc2nccc(Oc3ccc(NC(=O)NC4CC4)c(Cl)c3)c2cc1C(N)=O` [compound A, 4-[3-chloro-4-(cyclopropylaminocarbonyl)aminophenoxy]-7-methoxy-6-quinolinecarboxamide] was tested, and the “antitumor effect (tumor volume on Day 15 vs control)” value [1] was “dose-dependent antitumor effect”, the “stable disease (SD, 6 weeks or more), percentage of patients” value ([2]; 17 patients, mesylate of compound A orally once a day, 24 mg in terms of free form, 28-day cycles, 13 patients) was 76.5% and the “partial response (PR), percentage of patients” value ([2]; 17 patients, mesylate of compound A orally once a day, 24 mg in terms of free form, 28-day cycles, one patient) was 5.9%. The “tendency for tumor regression, number of patients” value ([2]; among 13 SD patients, 24 mg orally once a day) was 8 patients, the “antitumor effect (tumor volume on Day 15 vs control)” value [3] was “dose-dependent antitumor effect” and the “antitumor effect (tumor volume on Day 15 vs control)” value [4] was “dose-dependent antitumor effect”.
